From the NIST ThermoML archive (doi:10.1021/je049777o)
± gives the expanded uncertainty stated by the source.

Assay: xn = mol fraction of the nth substance listed
Conditions: 101.3 kPa, Liquid

COC(=O)OC [dimethyl carbonate] + CCCCCC
Conditions	mass density [kg/m3]	viscosity [mPa·s]
293.15 K, x1 = 0.0961	685.68 ± 0.64	0.3032 ± 0.0075
293.15 K, x1 = 0.193	712.34 ± 0.6	0.3094 ± 0.0075
293.15 K, x1 = 0.2909	741.99 ± 0.55	0.3213 ± 0.0076
293.15 K, x1 = 0.3894	774.82 ± 0.5	0.341 ± 0.0077
293.15 K, x1 = 0.489	811.38 ± 0.44	0.3647 ± 0.0078
293.15 K, x1 = 0.5893	851.98 ± 0.38	0.3939 ± 0.008
293.15 K, x1 = 0.6906	897.34 ± 0.32	0.427 ± 0.0082
293.15 K, x1 = 0.7928	948.58 ± 0.25	0.4715 ± 0.0085
293.15 K, x1 = 0.896	1006.55 ± 0.21	0.542 ± 0.0091
293.15 K, x1 = 1	1069.54 ± 0.24	0.6173 ± 0.0096
298.15 K, x1 = 0.0961	680.92 ± 0.65	0.2901 ± 0.0074
298.15 K, x1 = 0.193	707.38 ± 0.6	0.294 ± 0.0074
298.15 K, x1 = 0.2909	736.8 ± 0.56	0.306 ± 0.0075
298.15 K, x1 = 0.3894	769.42 ± 0.51	0.3232 ± 0.0076
298.15 K, x1 = 0.489	805.8 ± 0.45	0.3449 ± 0.0077
298.15 K, x1 = 0.5893	846.19 ± 0.39	0.3709 ± 0.0079
298.15 K, x1 = 0.6906	891.45 ± 0.33	0.4024 ± 0.0081
298.15 K, x1 = 0.7928	942.39 ± 0.26	0.4472 ± 0.0084
298.15 K, x1 = 0.896	1000.17 ± 0.21	0.5031 ± 0.0088
298.15 K, x1 = 1	1062.95 ± 0.23	0.5734 ± 0.0093
303.15 K, x1 = 0.0961	676.14 ± 0.65	0.279 ± 0.0073
303.15 K, x1 = 0.193	702.37 ± 0.61	0.2817 ± 0.0073
303.15 K, x1 = 0.2909	731.62 ± 0.57	0.2923 ± 0.0074
303.15 K, x1 = 0.3894	764.04 ± 0.52	0.3061 ± 0.0075
303.15 K, x1 = 0.489	800.21 ± 0.46	0.3252 ± 0.0076
303.15 K, x1 = 0.5893	840.41 ± 0.4	0.3502 ± 0.0077
303.15 K, x1 = 0.6906	885.48 ± 0.33	0.3808 ± 0.0079
303.15 K, x1 = 0.7928	936.19 ± 0.27	0.4221 ± 0.0082
303.15 K, x1 = 0.896	993.78 ± 0.21	0.4748 ± 0.0086
303.15 K, x1 = 1	1056.35 ± 0.23	0.5403 ± 0.009
313.15 K, x1 = 0.0961	666.41 ± 0.67	0.2513 ± 0.0072
313.15 K, x1 = 0.193	692.21 ± 0.63	0.2555 ± 0.0072
313.15 K, x1 = 0.2909	721.04 ± 0.58	0.2645 ± 0.0072
313.15 K, x1 = 0.3894	753.05 ± 0.53	0.277 ± 0.0073
313.15 K, x1 = 0.489	788.82 ± 0.48	0.2938 ± 0.0074
313.15 K, x1 = 0.5893	828.62 ± 0.42	0.3163 ± 0.0075
313.15 K, x1 = 0.6906	873.34 ± 0.35	0.3417 ± 0.0077
313.15 K, x1 = 0.7928	923.65 ± 0.28	0.3763 ± 0.0079
313.15 K, x1 = 0.896	980.84 ± 0.22	0.4229 ± 0.0082
313.15 K, x1 = 1	1043.01 ± 0.21	0.4807 ± 0.0086
323.15 K, x1 = 0.0961	656.55 ± 0.68	0.2333 ± 0.0071
323.15 K, x1 = 0.193	681.9 ± 0.64	0.2344 ± 0.0071
323.15 K, x1 = 0.2909	710.27 ± 0.6	0.2423 ± 0.0071
323.15 K, x1 = 0.3894	741.92 ± 0.55	0.2536 ± 0.0072
323.15 K, x1 = 0.489	777.28 ± 0.49	0.2681 ± 0.0073
323.15 K, x1 = 0.5893	816.69 ± 0.43	0.288 ± 0.0074
323.15 K, x1 = 0.6906	861.07 ± 0.37	0.3101 ± 0.0075
323.15 K, x1 = 0.7928	910.98 ± 0.3	0.3404 ± 0.0077
323.15 K, x1 = 0.896	967.8 ± 0.23	0.3781 ± 0.0079
323.15 K, x1 = 1	1029.59 ± 0.19	0.427 ± 0.0082
333.15 K, x1 = 0.0961	646.44 ± 0.7	0.213 ± 0.007
333.15 K, x1 = 0.193	671.36 ± 0.66	0.2167 ± 0.007
333.15 K, x1 = 0.2909	699.25 ± 0.61	0.2239 ± 0.007
333.15 K, x1 = 0.3894	730.55 ± 0.56	0.234 ± 0.0071
333.15 K, x1 = 0.489	765.5 ± 0.51	0.2466 ± 0.0071
333.15 K, x1 = 0.5893	804.52 ± 0.45	0.2639 ± 0.0072
333.15 K, x1 = 0.6906	848.53 ± 0.39	0.2842 ± 0.0073
333.15 K, x1 = 0.7928	898.13 ± 0.31	0.3117 ± 0.0075
333.15 K, x1 = 0.896	954.54 ± 0.24	0.3447 ± 0.0077
333.15 K, x1 = 1	1016 ± 0.18	0.3893 ± 0.008
